Data published in patent US12246034B2, “Animal feed supplement and method” (CAN TECHNOLOGIES, INC., priority 2014, dated 2025).
Read-outs that look alike come from different tables or passages of the source.

How the values were obtained:
[1] = system: sows; settings: for Probability of piglet Livability: 1-((stillborn + died pre weaning)/total pigs after cross fostering)
Description: During lactation, sows were fed either the positive control or negative control standard lactation diet according to a step-up feeding schedule. Until farrowing the sows were fed a fixed amount of either the positive or negative controls of the standard lactation diet twice a day. After farrowing the amount of feed either the positive or negative controls of the standard lactation diet fed was increased gradually till a maximum of 8 kg/sow per day. The amount of which could be adjusted based on the appetite of the sow. Piglets were fed Ad libitum (no milk was provided other than from the sow a commercial creep feed (meal, dry) from day 4-16 of age and a pelleted commercial prestarter from day 16 till weaning. In total, 150 sows were allocated over the three rooms based on parity. Within 2 days after farrowing, litters were standardized to 13-14 piglets per sow.
The following measurements were recorded as shown in TABLE 1C: (i) sow weight and backfat thickness when entering the farrowing room (day 111 of gestation) and at weaning (22 days post farrowing); (ii) sow reproductive performance was recorded right after farrowing (number of piglets born total, alive, stillborn, mummified); (iii) piglets weights were recorded at birth, day 5 after birth and at weaning; (iv) creep feed intake of piglets between day 4 and weaning was recorded; (v) number of piglets alive at day 4 and at weaning were registered; (vi) when piglets died, the reason for dying was also registered; and (vii) interventions during the birth process (e.g. the use of planate, oxytocin and birth assistance).

[2] = system: sows; settings: for NBA (Number Born Alive) / TNB (Total Number Born) / Litter growth, 24 hour to 3 days / Litter growth, Start to 24 hour / Litter growth, Start to 3 days / Piglet weight, 24 hour / Piglet weight, 3 days / Piglet weight, Start / Birth weight: LS Means ± SEM; for NBD (Number Born Death), stillborn piglets / Mortality: log transformed, back-transformed to absolute values; for Litter weight, 24 hour / Litter weight, 3 days / Litter weight, Start: corrected for mortality and cross fostering; for Birth weight: litter
Description: A field trial was conducted on a commercial farm in Denmark with 650 highly productive Danbred sows (Landrace x Yorkshire) inseminated with a pure line Duroc boar, between Nov. 17, 2014 and Jan. 16, 2015. A total of 139 sows (total number before analyzes) were included in the trial, divided over 3 subsequent sow groups farrowing over a time span of 6 weeks. For all analyzes SAS software (version 9.3, SAS Institute Inc., Cary, N.C.) was used. Sows received a dry meal transition feed (from gestation to lactation), fed from day 111 of gestation till day 5 of lactation, and were allocated to one of the two treatment groups based on parity. […] The total amount of calcium was equal between both experimental treatments. Number born alive (NBA), stillborn and mummies, litter birth weight, as well as back fat of the sows before farrowing (day 110 of gestation) and at weaning (day 24 of lactation) were measured. Litter weights at 24 hours and 3 days after birth were measured as well. On day 3 after birth blood samples were taken from 6 piglets (2 biggest, 2 medium and 2 smallest) from 65 litters of their tails when they were cut and analyzed on immunoglobulin G (IgG) concentration. Placentas of the sows were collected after the farrowing process was finished, stored in freezers and afterwards scored on redness for an indication of the vascularization of these placentas.

[3] = system: sows; settings: 0.1% calcium nitrate in phase 1 diet, 19 May 2014 till 16 Aug. 2014
Description: 600 sows and all sows were fed two diets over the test period. The first diet (phase 1) was fed from approximately 5 days pre-farrowing until 5 days post-farrowing. The second diet (phase 2) was fed from day 5 post-farrowing until weaning.
The following measurements were recorded as shown in TABLE 2A: (i) gestation length; (ii) sow reproductive performance was recorded right after farrowing (number of piglets born total, alive, stillborn); (iii) piglet; (iv) total piglets weaned; (v) weaning weights; and (vi) piglets per sow per year; and […].

[4] = 0.1% Bolifor CNF in lactation diet, means
[5] = 0.1% Bolifor CNF, induction of sows as covariable
[6] = 0.1% Bolifor CNF, induction of sows as covariable, listed as calcium nitrate
[7] = piglets, 0.1% Bolifor CNF, corrected for lactation length
[8] = 0.1% Bolifor CNF in transition feed, listed as Bolifor CNF ®
[9] = 0.1% Bolifor CNF in transition feed, listed as Bolifor CNF®
[10] = 0.1% Bolifor CNF, listed as Bolifor CNF ®
[11] = 0.1% Bolifor CNF, listed as Bolifor CNF®

## O=[N+]([O-])[O-].O=[N+]([O-])[O-].[Ca+2] [Bolifor CNF, calcium nitrate]
[1]; 0.1% Bolifor CNF in lactation diet
  Probability Born Mummified: 2.3%
[1]; [4]
  Total born: 16.3
  Total born alive: 15.3
  Total still born: 1.0
  Total weaned: 13.1
[1]; 0.1% Bolifor CNF
  Probability of piglet Livability: 89.8
[1]; 0.1% Bolifor CNF, listed as calcium nitrate
  Probability of piglet Livability: numerically higher
[1]; [5]
  Probability Still Born: 6.2%
  Probability born alive: 93.8%
  Probability of piglet mortality from cross fostering (day 4-5)-weaning: 2.0%
  Probability of piglets alive at day 4-5: 92.5%
[1]; [6]
  Probability Still Born: numerically lower
  Probability born alive: numerically higher
[1]; piglets, 0.1% Bolifor CNF
  ADG 0-5: 157 g/day
  ADG 5-weaning: 245.3 g/day
  Average birth weight: 1.36 kg
  Average weight post fostering: 2.30 kg
  Litter weight Pre fostering: 19.8 kg
[1]; piglets, 0.1% Bolifor CNF, calculated, not measured
  Litter weight post fostering: 30.8 kg
[1]; [7]
  Average weight at weaning: 6.71 kg
  Litter weight at weaning: 82.0 kg
[1]; piglets, 0.1% Bolifor CNF, corrected for lactation length, listed as calcium nitrate
  Litter weight at weaning: numerically higher
[2]; [8]
  NBA (Number Born Alive): 16.84 ± 0.170
  TNB (Total Number Born): 17.90 ± 0.460
  NBD (Number Born Death), stillborn piglets: 1.32 ± 0.006
  Birth weight: 21.70 ± 0.614 kg
[2]; [9]
  NBA (Number Born Alive): 16.84
  TNB (Total Number Born): did not differ
  NBD (Number Born Death), stillborn piglets: 1.32
  Birth weight: did not differ
[2]; [10]
  Litter growth, 24 hour to 3 days: 1.80 ± 0.140 kg/day
  Litter growth, Start to 24 hour: 1.21 ± 0.161 kg/day
  Litter growth, Start to 3 days: 3.03 ± 0.234 kg/day
  Piglet weight, 24 hour: 1.41 ± 0.012 kg
  Piglet weight, 3 days: 1.55 ± 0.018 kg
  Piglet weight, Start: 1.32 ± 0.046 kg
  Litter weight, 24 hour: 18.14 kg
  Litter weight, 3 days: 19.93 kg
  Litter weight, Start: 16.70 kg
  Piglet growth, 24 hour to 3 days: 0.140 kg/day
  Piglet growth, Start 3 days: 0.235 kg/day
  Piglet growth, Start to 24 hour: 0.093 kg/day
  Mortality: 1.87
[2]; [11]
  Litter growth, 24 hour to 3 days: no differences were found
  Litter growth, Start to 24 hour: no differences were found
  Litter growth, Start to 3 days: no differences were found
  Piglet weight, 24 hour: did not differ
  Piglet weight, 3 days: did not differ
  Piglet weight, Start: did not differ
  Litter weight, 24 hour: did not differ
  Litter weight, 3 days: did not differ
  Litter weight, Start: did not differ
  Piglet growth, 24 hour to 3 days: no differences were found
  Piglet growth, Start 3 days: no differences were found
  Piglet growth, Start to 24 hour: no differences were found
  Mortality: did not differ
[2]; 0.1% Bolifor CNF, calculated colostrum intake
  Colostrum, CI per piglet: 222.02 g
[2]; 0.1% Bolifor CNF, calculated colostrum intake, listed as Bolifor CNF ®
  Colostrum, CI (Colostrum Intake): 2858.60 g
[2]; 0.1% Bolifor CNF, calculated colostrum intake, listed as Bolifor CNF®
  Colostrum, CI (Colostrum Intake): No differences were found
[2]; parities >4, 0.1% Bolifor CNF in transition feed
  NBD, highest parity group: 1.21
[3]
  Born Alive: 15.8
  Mortality: 10.5%
  Piglets/sow/year: 34.1
  Pregnancy rate: 94.5%
  Total born: 17.3
  Weaning weight: 6.7 kg
[3]; listed as Calcium nitrate
  Piglet Livability: 82.7%
  Piglets Weaned: 14.3
  Still Born: 1.5
[3]; listed as calcium nitrate
  Piglet Livability: increase
  Piglets Weaned: increase
  Still Born: decrease
